The target in series [1] is PON1 (Homo sapiens, UniProt P27169). The settings on record: cited from earlier work.
Series [2] deals with alanine aminotransferase (ALAT). As to the kind of experiment: ALAT elevation during longer-term treatment with ximelagatran (clinical trials). It counts as in vivo, human. The source says:
Phase III clinical trials have been performed using fixed doses of melagatran and ximelagatran for the prevention of VTE in hip or knee replacement surgery. In addition, clinical trials have been performed using ximelagatran for the treatment and long-term secondary prevention of VTE, and for the prevention of stroke in patients with non-valvular atrial fibrillation. Ximelagatran has also been tested for secondary thrombosis prophylaxis post-myocardial infarction/acute coronary syndrome (ACS).
Alanine aminotransferrase (ALAT) is an enzyme mostly expressed in the liver (EC 2.6.1.2). It is also called serum glutamate pyruvate transaminase (SGPT) or alanine transaminase (ALT). This enzyme is release into the plasma by liver cell death, which is a normal event. However, when liver cell death increases, ALAT levels rise above the normal range. The spill-over of this enzyme into blood is routinely measured as a marker of abnormal liver-cell damage. For example, alcoholic or viral hepatitis will increase ALAT levels, as will severe congestive heart failure. ALAT is also markedly raised in hepatitis and other acute liver damage. An elevated ALAT in the presence of normal levels of plasma alkaline phosphatase helps distinguish liver disease caused by liver-cell damage from diseases caused by problems in biliary ducts. Elevations of ALAT are normally measured in multiples of the upper limit of normal (ULN), with a reference range of 15-45 U/L in most laboratories. In 1987, in a study of 19,877 healthy Air Force recruits, only 99 (0.5%) had confirmed ALAT elevations (as reviewed in Green & Flamm (2002) Gastroenterology 123:1367-1384).
The increase in ALAT values with ximelagatran usually occurred within the first 6 months of treatment and were mainly asymptomatic. […] Subject to the future regulatory approval of ximelagatran, regular liver function testing (LFT) using an appropriate algorithm may be required if ximelagatran is used for treatment periods exceeding a month. […]

The source of these data is patent US20090029367A1 (AstraZeneca AB, priority 2005, published 2009).

Sequence of PON1 (P27169 whole entry): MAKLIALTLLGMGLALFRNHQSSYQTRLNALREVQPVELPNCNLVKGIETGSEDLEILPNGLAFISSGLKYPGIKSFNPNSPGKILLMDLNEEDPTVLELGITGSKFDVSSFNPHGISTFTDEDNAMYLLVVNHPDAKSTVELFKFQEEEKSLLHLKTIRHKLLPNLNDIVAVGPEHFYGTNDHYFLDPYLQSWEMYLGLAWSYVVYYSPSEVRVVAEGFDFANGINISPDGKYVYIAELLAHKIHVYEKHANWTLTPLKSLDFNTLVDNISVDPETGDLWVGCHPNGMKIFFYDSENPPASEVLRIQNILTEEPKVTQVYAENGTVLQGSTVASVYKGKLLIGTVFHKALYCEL

Consider `CC[C@H](C)C(=O)O[C@H]1C[C@@H](C)C=C2C=C[C@H](C)[C@H](CC[C@@H]3C[C@@H](O)CC(=O)O3)[C@H]21` [lovastatin], for which the “hydrolysis by PON1” value in series [1] was “hydrolyzed by PON1”.

In the case of `CC[C@H](C)C(=O)O[C@H]1CCC=C2C=C[C@H](C)[C@H](CC[C@@H]3C[C@@H](O)CC(=O)O3)[C@H]21` [mevastatin], the “hydrolysis by PON1” value in series [1] was “hydrolyzed by PON1”.

Consider `CC(=O)S[C@@H]1CC2=CC(=O)CC[C@]2(C)[C@H]2CC[C@@]3(C)[C@@H](CC[C@@]34CCC(=O)O4)[C@H]12` [spironolactone], for which the “hydrolysis by PON1” value in series [1] is listed as “hydrolyzed by PON1”.

Consider `CCOC(=O)CN[C@@H](C(=O)N1CC[C@H]1C(=O)NCc1ccc(/C(N)=N\O)cc1)C1CCCCC1` [ximelagatran, EtOOC—CH2—(R)Cgl-Aze-Pab-OH], for which, in series [2] (longer-term treatment (>35 days), 1.2% in the comparator groups), the “patients exhibiting levels of alanine aminotransferase (ALAT) 3-fold or more above the upper limit of normal (≧3×ULN)” value is 7.9%. In series [2] (regardless of whether treatment was continued or discontinued), the “reversibility of ALAT increases” value is on record as “reversible in most patients”. Further, in series [2] (usually, of treatment, mainly asymptomatic), the “time of occurrence of the increase in ALAT values” is listed as no more than 6 months.
